Experimental findings from US10570152B2, “Antibacterial therapeutics and prophylactics” (VYOME BIOSCIENCES PVT. LTD., priority 2015, dated 2020) are described below.

A short description of series [1]: Drug release assay of compound impregnated Smart set HV. It counts as physicochemical. The conditions noted are these: Smart set HV loaded; PBS buffer (pH 6.8):acetonitrile (9:1), 32° C., 7 days. The protocol: The drug release study with compound 2 and compound 10 were conducted in sample vial containing 1.5 ml of dissolution media i.e., PBS buffer (pH 6.8):acetonitrile (9:1). The sample was kept in incubator rotator at 32° C. at 40 rpm. The release medium was withdrawn at specified interval of time (2 hr, 4 hr, 6 hr, day 1, day 2, day 3, day 4, day 5, day 6, day 7 and replaced by fresh 1.5 ml dissolution medium each time. All the samples were kept at −20° C. till the analysis is done. The measurement of drug release was done by HPLC.

Series [2] relates to A. baumannii ATCC 1906. The experiment in a line: MIC by micro broth dilution. It counts as cell-based. The conditions noted are these: Acinetobacter baumannii, ATCC1906, read-out: Minimum inhibitory concentration (MIC). The gist of the method:
(§1)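 Using CLSI guidance, compound is double-diluted in BHI broth and challenged with bacteria from a 0.5 McFarland suspension (about 1.5×10^8 cells/ml) diluted 100 times. After 24 h at 37° C., Alamar blue dye gives the MIC.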
Background: Dilution methods test growth across graded concentrations, often in twofold steps.

Series [3] concerns E. coli BAA 196. The experiment in a line: MIC by micro broth dilution. The series is classed as cell-based. The conditions noted are these: Escherichia coli, BAA196, read-out: Minimum inhibitory concentration (MIC). The gist of the method:
as §1

For series [4], the system named is E. coli MTCC 1687. Nature of the series: MIC by micro broth dilution. The series is classed as cell-based. The conditions noted are these: Escherichia coli, MTCC1687, read-out: Minimum inhibitory concentration (MIC). The gist of the method:
as §1

Series [5] deals with S. epidermidis ATCC 35984. The experiment in a line: MIC by micro broth dilution. It counts as cell-based. The conditions noted are these: Staphylococcus epidermidis, ATCC35984, read-out: Minimum inhibitory concentration (MIC). The method in brief:
as §1

Series [6] deals with S. aureus ATCC 43300. Nature of the series: MIC by micro broth dilution. The conditions noted are these: Staphylococcus aureus, ATCC43300; S. aureus ATCC 43300; read-out: Minimum inhibitory concentration (MIC). It counts as cell-based. The method in brief:
as §1

In series [7] the test system is E. aerogenes M2-1. The experiment in a line: MIC by micro broth dilution. The conditions noted are these: Klebsiella aerogenes, M21, read-out: Minimum inhibitory concentration (MIC). The series is classed as cell-based. The method in brief:
as §1

The test system of series [8] is E. faecium NCIM 5421. The experiment in a line: MIC by micro broth dilution. It counts as cell-based. The conditions noted are these: Enterococcus faecium, NCIM5421, read-out: Minimum inhibitory concentration (MIC). The gist of the method:
as §1

Series [9] deals with S. epidermidis S12-1. The experiment in a line: MIC by micro broth dilution. It counts as cell-based. The conditions noted are these: Staphylococcus epidermidis, S121, read-out: Minimum inhibitory concentration (MIC). The gist of the method: as §1
Series [10] has as its system K. pneumonia ATCC 13883. Nature of the series: MIC by micro broth dilution. The series is classed as cell-based. The conditions noted are these: Klebsiella pneumoniae, ATCC13883; K. pneumonia ATCC 13883; read-out: Minimum inhibitory concentration (MIC). The gist of the method:
as §1

Series [11] has as its system E. aerogenes NCIM 5139. The experiment in a line: MIC by micro broth dilution. It counts as cell-based. The conditions noted are these: Klebsiella aerogenes, NCIM5139, read-out: Minimum inhibitory concentration (MIC). The method in brief:
as §1

For series [12], the system named is S. aureus CCARM 3505. The experiment in a line: MIC by micro broth dilution. The conditions noted are these: Staphylococcus aureus, CCARM3505, read-out: Minimum inhibitory concentration (MIC). The series is classed as cell-based. The gist of the method: as §1
The subject of series [13] is S. aureus MTCC 6908. The experiment in a line: MIC by micro broth dilution. It counts as cell-based. The conditions noted are these: Staphylococcus aureus, MTCC6908, read-out: Minimum inhibitory concentration (MIC). The gist of the method:
as §1

Series [14] relates to P. aeruginosa ATCC 27853. The experiment in a line: MIC by micro broth dilution. The series is classed as cell-based. The conditions noted are these: Pseudomonas aeruginosa, ATCC27853, read-out: Minimum inhibitory concentration (MIC). The gist of the method: as §1
In series [15] the test system is S. aureus and S. epidermidis. Nature of the series: Emergence of resistance assay (serial passaging). It counts as cell-based, S. aureus MTCC 6908 & S. epidermidis S5-2. The conditions noted are these: upto 28th generation. The protocol:
The in vitro emergence of resistance assay was performed for the compounds as per methods reported in literatures. The resistance assay for the test compounds was done in the same manner as documented in the MIC assay using micro broth dilution method as per CLSI guidelines. For the second cycle, bacterial culture was collected from the well showing growth, containing the next lowest concentration to the MIC of test compound, and used as inoculum for the next cycle containing the same or higher range of concentrations depending on the MIC in each cycle. The same procedure was repeated in subsequent cycles for 20-30 days. […] The serial passaging was repeated for 20-30 consecutive cycles. The assay was done in duplicates in each cycle.
An increase in MIC≥8 fold compared to the MIC of the test compound in cycle 1 was considered as a significant development of resistance.

Series [16] deals with P. acnes CCARM 9010 induced paw inflammation. The experiment in a line: Anti-inflammatory action in vivo, rat paw edema model. The arrangement: species or system Sprague Dawley rats. The conditions noted are these: topical, 24 h post initiation of treatment (32 h post induction). An excerpt: Host inflammation is one of the crucial clinical feature of most of the indications associated with bacterial infections. The inventors used an exemplary compound of the invention (Compound 2) to test the anti-inflammatory effects in vivo using rat paw edema model. Inflammation was induced using one of the opportunistic pathogens Propionibacterium acnes prevalent in implant associated infections. Sprague Dawley rats were used for the study and infection was induced by P. acnes CCARM 9010. An inoculum of 1×10^9 CFU/ml of the heat killed bacteria was injected to the plantar side of the right hind paw (˜2×10^7 CFU/paw) except in sham control where saline was injected. Treatments were initiated 8 h post injection by applying the test formulation of Compound 2 (30 mg) twice daily to the plantar surface of the right hind paw and gently rubbing 50 times with the index finger. Comparators Acnedap (dapsone 5% gel) and adapalene gel (Adaferin®) were applied twice daily and once daily based on clinical prescription dosage. Paw sizes were measured in millimeters using Vernier calipers at the start of the infection, 8 h post infection, and 24 h post initiation of treatment (32 h post induction of inflammation). The change in paw size, due to inflammation, was evaluated as the difference between the paw size measured at each time point and the basal paw size measured immediately before edema induction.

Converted amounts (≈) assume the structure as drawn. “And” between values parts separate entries of the source, which are not always exact repeats. Equal entries are not always repeated.

On to `Cc1ncc([N+](=O)[O-])n1CCN1CCN(c2cc3c(cc2F)c(=O)c(C(=O)O)c2n3C(C)S2)CC1` (stereo not shown) [Compound 2, 6-Fluoro-1-methyl-7-(4-(2-(2-methyl-5-nitro-1H-imidazol-1-yl)ethyl)piperazin-1-yl)-4-oxo-1H,4H-[1,3]thiazeto[3,2-a]quinoline-3-carboxylic acid], for which, in series [1], the “drug release from bone cement in words” value was “sustained release of active over a period of 7 days”. Moreover, the MIC was found to be 8 µg/mL (≈ 15.9 µM) in series [2]; 8 µg/mL (≈ 15.9 µM) in series [3]; 1 µg/mL (≈ 1.99 µM) in [4]; 0.03 µg/mL (≈ 0.0597 µM) in [5]; 0.13 µg/mL (≈ 0.259 µM) in series [6]; 8 µg/mL (≈ 15.9 µM) in [7]. Further, the MIC worked out at 0.25 µg/mL (≈ 0.497 µM) in series [8]; 8 µg/mL (≈ 15.9 µM) in series [9]; 4 µg/mL (≈ 7.96 µM) in series [10]; 4 µg/mL (≈ 7.96 µM) in series [11]; 16 µg/mL (≈ 31.8 µM) in series [12]; 0.53 µg/mL (≈ 1.05 µM) in [13]. For the same molecule, the MIC in [14] stood at 8 µg/mL (≈ 15.9 µM). The MIC enhancement in [15] was 2-4 ×MIC. In [16], the “Inhibition of inflammation (%) at 24 h post treatment” value was 43% and 43.20%.
